Results taken from article PMC12720113, “The binding mechanism of a novel ferrous ion chelating peptide from chicken blood hemoglobin and the bioavailability of the chelate” (Food Chemistry: X, 2025).
Like-named read-outs stand apart in the source and are kept apart here. Marks after values point to notes of the source that are not given here. Values belong to the molecule of their own block, whether it stands above or below them. Where no end group is shown, it is not given here.

What was measured:
[1] = In vitro digestive simulation (iron retention); type: in vitro ADME
Experimental: In vitro simulated digestion of […] according to [Ding et al. (2025)]. […] To simulate the digestive processes of the stomach and intestines separately, the pH values of the three iron supplements were adjusted to 2.0 and 7.6, respectively, and pepsin and trypsin (3 %, w/w) were added separately. The mixture was incubated in a water bath at 37 °C for 2 h. To simulate the digestive processes of the gastrointestinal tract, the three iron supplements were subjected to simulated gastric digestion followed by intestinal digestion. The retention rates of iron after gastric digestion, intestinal digestion, and simulated gastrointestinal digestion were determined according to the method described in Section 2.9.1.

[2] = Effect of different dietary components on iron retention; type: in vitro ADME
Experimental: Then, the pH was adjusted to 2.0, and oxalic acid solution (1 %, w/v) was added. Gastrointestinal digestion simulation was then performed under the conditions described in 2.9.2. After the reaction was complete, the enzyme was inactivated, and the supernatant was collected after centrifugation. To assess the effects of phytate and dietary fiber on iron absorption, 1 % phytate and 8 % dietary fiber were added to the sample solution, and the digestion and measurement steps were repeated. By comparing changes in iron retention under different treatment conditions, the impacts of phytate and dietary fiber on the stability of […] chelate were analyzed. For calculations of iron retention rates, refer to Section 2.9.1.

[3] = Iron chelating rate (alcohol precipitation method); type: binding; conditions: synthesized peptide 1 mg/mL, pH 5 sodium acetate buffer, 1 mL + 2 mL FeCl2•4H2O 1.5 mM, 37 °C, 30 min, means ± SEM, three independent experiments
Experimental: The detection of iron chelation activity was performed using the method described by [Lin et al. (2021)]. The peptide solution was prepared using sodium acetate buffer. Subsequently, 1 mL of the peptide solution (1 mg/mL, pH 5) was mixed with 2 mL of FeCl₂•4H₂O (1.5 mM) and reacted at 37 °C for 30 min. Then, the alcohol precipitation method was used to determine the chelation rate of ferrous ions:(1) Iron chelating rate%=A−A1/A×100% where: A is the total amount of ions added; A1 is the content of free ions in the supernatant.
The peptides identified by mass spectrometry were synthesized by China Qiangyao Co., Ltd. (Shanghai, China) using Fmoc-protected amino acid solid-phase peptide synthesis, with the purity of these peptides evaluated at over 98 %. The ferrous ion chelating activity was verified using the method described in Section 2.3.

[4] = Zeta potential; type: physicochemical; conditions: 1 mg/mL solution, 25 °C, Zetasizer Nano ZSE
Experimental: (§1) An appropriate amount of […] and […]-Fe solutions with a concentration of 1 mg/mL were added to U-shaped cuvettes and equilibrated at a constant temperature of 25 °C for 5 s. The Zeta potential values and particle size distributions of the samples were determined using a Zetasizer Nano ZSE analyzer to evaluate their surface charge characteristics and solution stability.

[5] = Particle size distribution; type: physicochemical; conditions: 1 mg/mL solution, 25 °C, Zetasizer Nano ZSE
Experimental: as §1

[6] = Intermolecular force analysis with dissociation reagents; type: physicochemical; conditions: 2 mg/mL, read at 500 nm
Experimental: Referring to the study by [Sun et al. (2020)], the intermolecular forces of […]-Fe were analyzed using different dissociation reagents. The absorbance values at 500 nm of the sample solution (2 mg/mL) were measured at the initial moment of the reaction (0 min) and after 30 min, respectively. At 30 min of the reaction, 1 mol/L NaCl, 30 mmol/L DTT (dithiothreitol), 0.5 % SDS, and 6 mol/L urea were added sequentially, followed immediately by absorbance detection using an enzyme meter.

[7] = Thermogravimetry (TG); type: physicochemical; conditions: TAEDKKLIQ from 249 °C to 426 °C; TAEDKKLIQ-Fe from 638 °C to 686 °C; 10 °C/min
Experimental: 5 mg of […] and […]-Fe lyophilized powders were weighed, respectively, and the thermal stability analysis was carried out by […]. The sample chamber temperature range is set from 50 to 800 °C, with a heating rate of 10 °C/min. The thermogravimetric change curves of the samples were recorded synchronously.

[8] = Temperature and pH stability test (iron retention); type: physicochemical; conditions: 1 mg/mL aqueous solution, 2 h
Experimental: The temperature stability of […]-Fe was determined using the method described by [Qu et al. (2022)]. The aqueous solution of […]-Fe (1 mg/mL) was incubated for 2 h at a temperature gradient of 30–80 °C and a pH gradient of 2–9. […]-Fe was separated using the alcohol precipitation method to calculate the iron retention rate:(2) Iron retention%=A−A0/A×100% where A represents the total iron content added to the reaction (mmol/mL), A0 represents the iron ion content in the supernatant after the reaction (mmol/mL).

[9] = test system: Caco-2 cells; test: Caco-2 cell viability assay (MTT); type: cell-based; conditions: 24 h, 490 nm, means ± SEM
Experimental: Caco-2 cell viability assay was conducted on […]-Fe according to the method of [Wu et al. (2019)]. And lactoferrin was chosen as an experimental control. When the cell fusion rate was close to 80 %, the cells were dissociated and passaged using the trypsin-EDTA mixed digest. Cultivate the 23rd generation of cells in the logarithmic growth phase at 37 °C and 5 % CO₂ for 24 h. Then, a gradient concentration of […]-Fe and Ac-[…]-Fe was added to the wells of the experimental group, and all the samples were incubated for 24 h. After incubation, 20 μL of MTT reagent was added to each well. After 2 h of reaction, 150 μL of DMSO was added and agitated for 10 min. The absorbance values at 490 nm were measured to reflect cell activity levels. Cell relative activity (%) was calculated:(3) Relative cell viability%=As−Ab/Ac−Ab×100 where: As represents the absorbance value of the sample treatment, Ab represents the absorbance value without cells, and Ac represents the absorbance value without sample treatment.

Molecule: TAEDKKLIQ
Ferrous retention after transfer to simulated intestinal fluid digestion ([1]; pH 7.6, trypsin 3 % w/w, 37 °C, 2 h, after gastric phase): significant increase in ferrous retention

Molecule: O=C([O-])[C@H](O)[C@@H](O)[C@H](O)[C@H](O)CO.O=C([O-])[C@H](O)[C@@H](O)[C@H](O)[C@H](O)CO.[Fe+2] [ferrous gluconate, reference compound]
Soluble iron content in the presence of phytic acid, oxalic acid or dietary fiber alone (rank) ([2]; 1 % oxalic acid, 1 % phytate or 8 % dietary fiber, then simulated gastrointestinal digestion, 37 °C): lower

Molecule: QAWEKAASH [Hemoglobin subunit alpha-D(12th–20th) peptide, synthesized]
Chelation rate (%) [3]: 81.38 ± 0.27^c %

Zeta potential [4]: 41.8 mV
Particle size, peak of the distribution [5]: 295 nm
Decrease in transmittance after DTT ([6]; 30 mmol/L DTT added at 30 min, disulfide bonds): 0.138
Decrease in transmittance after SDS ([6]; 0.5 % SDS added at 30 min, hydrophobic forces): 0.103
Decrease in transmittance after NaCl ([6]; 1 mol/L NaCl added at 30 min, electrostatic interactions): 0.20
Decrease in transmittance after urea ([6]; 6 mol/L urea added at 30 min, hydrogen bonding): 0.09
Weight loss, second stage (TG) [7]: 12.32%
Retention of soluble iron with phytic acid [2]: 76.73%
Soluble iron content in the presence of phytic acid, oxalic acid or dietary fiber alone (rank) [2]: highest level
Ferrous ion retention at 30 °C to 40 °C ([8]; alcohol precipitation): no significant loss observed
Iron retention, pH 6-9 ([8]; pH range 6-9): above 88%
Overall retention of ferrous ions as the temperature continued to increase ([8]; temperature gradient 30-80 °C, above 40 °C): above 40%
Molecule: TAEDKKLIQ-Fe
Iron retention in simulated digestion compared with the control iron supplements [1]: superior to that of ferrous sulfate and ferrous gluconate
Relative vitality of cells (%) ([9]; Caco-2, 0.125 mg/mL): 98.06 ± 1.22%
Relative vitality of cells (%) ([9]; Caco-2, 0.25 mg/mL): 97.72 ± 1.67%
Relative vitality of cells (%) ([9]; Caco-2, 0.5 mg/mL): 97.53 ± 0.89%
Relative vitality of cells (%) ([9]; Caco-2, 1 mg/mL): 97.21 ± 1.45%

Molecule: LSDLHAHKLR [Hemoglobin subunit alpha-A(84th–93th) peptide, synthesized]
Chelation rate (%) [3]: 87.07 ± 0.12^b %
